Data as given in patent publication US8822482B2, “Icotinib hydrochloride, synthesis, crystalline forms, pharmaceutical compositions, and uses thereof” (Beta Pharma, Inc., priority 2008, dated 2014).

What was measured:
[1] = Pharmacology and toxicology experiments, safety pharmacology; assay type: in vivo, Beagle dogs, mice, and rats
Protocol: Pharmacology and toxicology experiments in Beagle dogs, mice, and rats using Icotinib hydrochloride Crystalline Form I were also conducted.

[2] = system: advanced non-small cell lung cancer (NSCLC); assay: Phase IIa clinical trial in advanced NSCLC patients; assay type: in vivo, human
Source text: Definitions of terms used: PR: partial remission, CR: complete remission, SD: stable disease, PD: progression of disease, ORR: objective response rate, DCR: disease control rate.

[3] = Phase I clinical safety study, single doses of tablets; assay type: in vivo, human; conditions: 25-1025 mg single doses, 76 subjects
[4] = system: BGC-823 human gastric cancer cells; assay: Tumor cell growth inhibition in vitro, MTT assay; assay type: cell-based
Protocol: (§1) Method: Cells (˜2×10^3) were seeded in 96-well plates in 200 μL of RPMI1640 cell culture medium supplemented with 10% FBS. After 24 hours at 37° C. and 5% CO2, the medium was replaced in quintuplicate wells with medium containing Icotinib hydrochloride Crystalline Form I dissolved in DMSO and then serial diluted, yielding final Icotinib concentrations of 0.05-300 μM. DMSO concentrations were less than 0.1% at the highest drug concentrations. Cells were incubated in medium alone with 0.1% DMSO as a negative control. Following a 96 hr incubation, the MTT [3-(4,5-dimethylthiazol-2-yl)-2,5-diphenyltetrazolium] colorimetric assay was performed using a microplate reader (reference wavelength 450 nm, detection wavelength 570 nm). The logarithm of drug concentration on the inhibition rate was linear, and the half inhibitory concentration of the drug (IC50) was obtained.

[5] = system: KB human epidermoid carcinoma cells; assay: Tumor cell growth inhibition in vitro, MTT assay; assay type: cell-based
Protocol: as §1

[6] = system: BEL-7402 human hepatoma cells; assay: Tumor cell growth inhibition in vitro, MTT assay; assay type: cell-based
Protocol: as §1

[7] = system: A431 human epidermoid carcinoma; assay: Tumor cell growth inhibition in vitro, MTT assay; assay type: cell-based; conditions: A-431, A431, 96 hr
Protocol: as §1

[8] = system: H460 human lung adenocarcinoma cells; assay: Tumor cell growth inhibition in vitro, MTT assay; assay type: cell-based
Protocol: as §1

[9] = system: A549 human non-small cell lung cancer cells; assay: Tumor cell growth inhibition in vitro, MTT assay; assay type: cell-based
Protocol: as §1

[10] = system: HCT8 human colon cancer cells; assay: Tumor cell growth inhibition in vitro, MTT assay; assay type: cell-based
Protocol: as §1

[11] = 225 mg/day (75 mg, 3 times a day)
[12] = 300 mg/day (100 mg, 3 times a day)
[13] = 300 mg/day (150 mg, Twice a day)
[14] = 375 mg/day (125 mg, 3 times a day)
[15] = 400 mg/day (200 mg, Twice a day)
[16] = 450 mg/day (150 mg, 3 times a day)
[17] = 600 mg/day (200 mg, 3 times a day)

Question: Which results are given for `C#Cc1cccc(Nc2ncnc3cc4c(cc23)OCCOCCOCCO4)c1.Cl` [4-[(3-ethynyl-phenyl)amino]-6,7-benzo-12-crown-quinazoline hydrochloride]?
Answer: bone marrow toxicity ([1]; Beagle dogs, mice, and rats): no bone marrow toxicity; liver toxicity ([1]; Beagle dogs, mice, and rats): reversible liver toxicity; oral toxicity ([1]; Beagle dogs, mice, and rats): low oral toxicity; teratogenic, mutagenic and reproductive toxicity ([1]; additional toxicity testing): no teratogenic, mutagenic and reproductive toxicity; effect on autonomic nervous system activity or the central nervous system ([1]; safety pharmacological test): no effect; effect on respiration, blood pressure and circulatory function ([1]; safety pharmacological test): no effect; CR (complete remission), number of patients [2, 11]: 0; DCR (disease control rate) [2, 11]: 85.70%; ORR (objective response rate) [2, 11]: 0.00%; PD (progression of disease), number of patients [2, 11]: 1; PR (partial remission), number of patients [2, 11]: 0; CR (complete remission), number of patients [2, 12]: 2; DCR (disease control rate) [2, 12]: 62.96%; ORR (objective response rate) [2, 12]: 25.93%; PD (progression of disease), number of patients [2, 12]: 10; PR (partial remission), number of patients [2, 12]: 5; CR (complete remission), number of patients [2, 13]: 1; DCR (disease control rate) [2, 13]: 69.57%; ORR (objective response rate) [2, 13]: 30.43%; PD (progression of disease), number of patients [2, 13]: 4; PR (partial remission), number of patients [2, 13]: 6; CR (complete remission), number of patients [2, 14]: 0; DCR (disease control rate) [2, 14]: 91.70%; ORR (objective response rate) [2, 14]: 37.50%; PD (progression of disease), number of patients [2, 14]: 2; PR (partial remission), number of patients [2, 14]: 9; CR (complete remission), number of patients [2, 15]: 0; DCR (disease control rate) [2, 15]: 55.56%; ORR (objective response rate) [2, 15]: 0.00%; PD (progression of disease), number of patients [2, 15]: 3; PR (partial remission), number of patients [2, 15]: 0; CR (complete remission), number of patients [2, 16]: 0; DCR (disease control rate) [2, 16]: 90.10%; ORR (objective response rate) [2, 16]: 45.45%; PD (progression of disease), number of patients [2, 16]: 1; PR (partial remission), number of patients [2, 16]: 5; CR (complete remission), number of patients [2, 17]: 0; DCR (disease control rate) [2, 17]: 66.67%; ORR (objective response rate) [2, 17]: 0.00%; PD (progression of disease), number of patients [2, 17]: 1; treatment of non-small cell lung cancer (in words) ([2]; advanced NSCLC patients, oral tablets): effective; clinical safety of single doses [3]: safe; IC50 ([4]; BGC-823, 96 hr, listed as lcotinib hydrochloride Crystalline Form I, hydrochloride): 4.06 µM; IC50 ([4]; Homo sapiens, BGC-823, 96 h): 4 µM; activity against tumor cells (in words) [5]: low activity; IC50 ([5]; Homo sapiens, 96 hr, MTT): 40.7 µM; activity against tumor cells (in words) ([6]; BEL-7402): low activity; IC50 ([6]; Homo sapiens, BEL-7402, 96 hr, MTT): > 200 µM; IC50 [7]: 1 µM; IC50 ([8]; H460, 96 hr, listed as lcotinib hydrochloride Crystalline Form I, hydrochloride): 16.1 µM; IC50 ([8]; Homo sapiens, NCI-H460, 96 h): 16 µM; IC50 ([9]; A549, 96 hr, listed as lcotinib hydrochloride Crystalline Form I, hydrochloride): 12.2 µM; IC50 ([9]; Homo sapiens, A549, 96 h): 12 µM; activity against tumor cells (in words) ([10]; HCT8): low activity; IC50 ([10]; Homo sapiens, HCT-8, HCT8, 96 hr, MTT): > 200 µM
